The source of these data is ChEMBL document CHEMBL5316350, “Novel Pyrido[2',1':2,3]imidazo[4,5-c]quinoline Derivative Selectively Poisons Leishmania donovani Bisubunit Topoisomerase 1 to Inhibit the Antimony-Resistant Leishmania Infection in Vivo” (J Med Chem, 2023).

Active and inactive are the calls of the source. No cut-off for these calls is given here.

In data set [1] the test system is Leishmania donovani. Description: Induction of cell cycle arrest in antimony resistant Leishmania donovani BHU575 promastigotes assessed as decrease in accumulation of cells in G2/M phase at 5 uM measured after 6 hrs by PI staining based flow cytometry (reference value: 8.8%). Details: scale not given: the % may be the effect or the level left. Format: functional.

The subject of data set [2] is Leishmania donovani. Description: Induction of apoptosis in Leishmania donovani Ag83 promastigotes assessed as increase in apoptotic cells measured at 5 uM after 1.5 hrs by Annexin V-FITC/PI staining based flow cytometric analysis. Format: functional, organism-based.
In data set [3] the target is T1, DNA topoisomerase I (Leishmania donovani (strain BPK282A1), UniProt E9BRC0).
T1 sequence (E9BRC0 whole entry): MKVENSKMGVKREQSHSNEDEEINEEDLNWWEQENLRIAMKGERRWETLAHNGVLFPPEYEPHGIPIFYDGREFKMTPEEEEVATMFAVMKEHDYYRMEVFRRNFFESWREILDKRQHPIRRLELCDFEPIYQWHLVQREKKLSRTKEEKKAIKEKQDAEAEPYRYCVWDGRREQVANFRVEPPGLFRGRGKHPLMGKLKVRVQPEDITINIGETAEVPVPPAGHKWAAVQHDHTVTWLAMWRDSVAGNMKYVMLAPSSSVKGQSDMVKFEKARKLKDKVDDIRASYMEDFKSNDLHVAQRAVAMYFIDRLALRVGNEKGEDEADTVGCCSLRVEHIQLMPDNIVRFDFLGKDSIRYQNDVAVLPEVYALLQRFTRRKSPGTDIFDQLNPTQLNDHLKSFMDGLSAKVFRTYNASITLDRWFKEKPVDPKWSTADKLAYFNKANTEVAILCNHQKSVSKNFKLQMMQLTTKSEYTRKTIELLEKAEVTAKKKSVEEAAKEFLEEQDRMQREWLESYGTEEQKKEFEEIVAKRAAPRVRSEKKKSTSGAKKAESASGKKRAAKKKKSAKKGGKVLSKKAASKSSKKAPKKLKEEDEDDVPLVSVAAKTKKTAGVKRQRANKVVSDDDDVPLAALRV
Put plainly: Inhibition of Leishmania donovani Top1 assessed as relaxation of supercoiled pBluescript SK(+) DNA measured by agarose gel electrophoresis analysis.

The subject of data set [4] is Leishmania donovani. Put plainly: Induction of cell cycle arrest in antimony resistant Leishmania donovani BHU575 promastigotes assessed as decrease in accumulation of cells in G2/M phase at 5 uM measured after 24 hrs by PI staining based flow cytometry (reference value: 8.8%). Format: functional. Details: scale not given: the % may be the effect or the level left.

For data set [5], the target named is T2, DNA topoisomerase I (Leishmania donovani (strain BPK282A1)) (UniProt E9BRC0).
T2 sequence (whole entry): T1 sequence (E9BRC0 whole entry)
Put plainly: (§1) Inhibition of recombinant Top1 in Antimony resistant Leishmania donovani BHU575 whole cell extract assessed as relaxation of supercoiled pBluescript SK(+) DNA measured by agarose gel electrophoresis analysis. The note with it: dose 5-50 µM.

In data set [6] the target is T1, DNA topoisomerase I. The data set is described as §1.
For data set [7], the system named is Leishmania donovani. Description: Induction of cell cycle arrest in Leishmania donovani Ag83 promastigotes assessed as decrease in accumulation of cells in G0/G1 phase at 5 uM measured after 12 hrs by PI staining based flow cytometry (reference value: 65.1%). Format: functional. On the set-up: scale not given: the % may be the effect or the level left.
Data set [8] concerns the target T2, DNA topoisomerase I (Leishmania donovani (strain BPK282A1)). Description: Inhibition of Leishmania donovani recombinant Top1 assessed as relaxation of supercoiled pBluescript SK(+) DNA incubated for 30 mins by agarose gel electrophoresis analysis. The note with it: dose 0.5-10 µM.
Data set [9] deals with Leishmania donovani. Put plainly: Induction of apoptosis in Leishmania donovani Ag83 promastigotes assessed as viable cells measured at 5 uM after 6 hrs by Annexin V-FITC/PI staining based flow cytometric analysis (reference value: 99.4%). Format: functional.
For data set [10], the system named is Leishmania donovani. Description: Antileishmanial activity against Leishmania donovani Ag83 promastigotes infected in BALB/c mouse model of visceral leishmaniasis assessed as fold change in T-helper type 1 immunological evoke response in splenocytes by measuring increased IFN-gamma cytokine level treated after 3 weeks of infection at 5 mg/kg, ip twice a week for 3 weeks by RT-PCR analysis. Format: functional.

The test system of data set [11] is Leishmania donovani. Description: Antileishmanial activity against antimony resistant Leishmania donovani BHU575 promastigotes assessed as cell viability by MTT assay. Format: functional, organism-based.
Data set [12] relates to Leishmania donovani. Description: Antileishmanial activity in Leishmania donovani Ag83 promastigotes assessed as Top1cc-induced DNA breakdown by measuring TUNEL positive cells by confocal microscopic analysis. Format: functional, organism-based. The conditions noted are these: time 6-12 hrs, TDE = time-dependent effect.
The test system of data set [13] is Leishmania donovani. Put plainly: Induction of apoptosis in Leishmania donovani Ag83 promastigotes assessed as late apoptotic cells measured at 5 uM after 6 hrs by Annexin V-FITC/PI staining based flow cytometric analysis (reference value: 0.1%). Format: functional.
The test system of data set [14] is Leishmania donovani. Description: Induction of cell cycle arrest in Leishmania donovani Ag83 promastigotes assessed as accumulation of cells in S/G2 phase at 5 uM by PI staining based flow cytometry. Format: functional, organism-based. The conditions noted are these: time 6-24 hrs.
Data set [15] is described as follows: Toxicity in BALB/c mouse infected with Leishmania donovani Ag83 promastigotes assessed as change in body weight treated after 3 weeks of infection at 5 to 10 mg/kg, ip twice a week for 3 weeks. The conditions noted are these: in vivo, dose 5-10 mg/kg. Format: organism-based.
In data set [16] the test system is Leishmania donovani. Description: Antileishmanial activity against Leishmania donovani Ag83 amastigotes infected in BALB/c mouse macrophage assessed as cell viability measured after 48 hrs infection by propidium iodide staining analysis relative to control. Format: functional, organism-based. The conditions noted are these: Ag83, 48 h.
Data set [17] relates to Leishmania donovani. Description: Induction of apoptosis in Leishmania donovani Ag83 promastigotes assessed as early apoptotic cells measured at 5 uM after 12 hrs by Annexin V-FITC/PI staining based flow cytometric analysis (reference value: 0.00%). Format: functional.
In data set [18] the test system is Leishmania donovani. Description: Antileishmanial activity against antimony resistant Leishmania donovani BHU575 promastigotes infected in BALB/c mouse assessed as reduction of amastigote burden by measuring parasite count in spleen treated after 3 weeks of infection at 5 to 10 mg/kg, ip twice a week for 3 weeks by qPCR based kineto-plastid DNA. Format: functional, organism-based. The conditions noted are these: dose 5-10 mg/kg.

Data set [19] has as its system Leishmania donovani. Description: Induction of apoptosis in Leishmania donovani Ag83 promastigotes assessed as DNA break accumulation measured at 5 uM after 24 hrs by TUNEL staining based assay. Format: functional, organism-based.
The target in data set [20] is T2, DNA topoisomerase I (Leishmania donovani (strain BPK282A1)). Put plainly: Binding affinity to Leishmania donovani recombinant topoisomerase I assessed as stabilization of cleavage complex at 2.5 to 25 uM measured after 30 mins. The note with it: dose 2.5-25 µM.
In data set [21] the test system is Leishmania donovani. Description: Induction of apoptosis in Leishmania donovani Ag83 promastigotes assessed as necrotic cells measured at 5 uM after 6 hrs by Annexin V-FITC/PI staining based flow cytometric analysis (reference value: 0.5%). Format: functional.
Data set [22] deals with Leishmania donovani. Put plainly: Antileishmanial activity against Leishmania donovani Ag83 promastigotes infected in BALB/c mouse assessed as reduction of amastigote burden by measuring parasite count in blood treated after 3 weeks of infection at 5 to 10 mg/kg, ip twice a week for 3 weeks by qPCR based kineto-plastid DNA. Format: functional, organism-based. The note with it: dose 5-10 mg/kg.

For data set [23], the system named is Leishmania donovani. Description: Antileishmanial activity against Leishmania donovani Ag83 promastigotes infected in BALB/c mouse assessed as reduction of amastigote burden in spleen treated after 3 weeks of infection at 5 to 10 mg/kg, ip twice a week for 3 weeks by Giemsa staining stamp-smear based limiting dilution assay. Format: functional, organism-based. The note with it: dose 5-10 mg/kg.

The subject of data set [24] is Leishmania donovani. Description: Antileishmanial activity against antimony resistant Leishmania donovani BHU575 promastigotes infected in BALB/c mouse assessed as reduction of amastigote burden in spleen treated after 3 weeks of infection at 5 to 10 mg/kg, ip twice a week for 3 weeks by Giemsa staining stamp-smear based limiting dilution assay. Format: functional, organism-based. The note with it: dose 5-10 mg/kg.

As to `COc1cc(-c2nc3ccccc3c3nc4ccccn4c23)cc(OC)c1OC`, the Activity in the data set on Leishmania donovani [1] is 2.6%; in the data set on Leishmania donovani [4] it was 33.6%; in the data set on Leishmania donovani [7] it was 40.7%; in the data set on Leishmania donovani [9], 5%; in the data set on Leishmania donovani [12], “Tde”; with Leishmania donovani [13] it was 52.5%. Also, the Activity result in the data set on Leishmania donovani [14] is “Dose-Dependent Effect”; in data set [15], “Non-Toxic”; in the data set with Leishmania donovani [17], 11.4%; in the data set with Leishmania donovani [21], 23.9%. Also, the outcome (in the data set on Leishmania donovani [2]; in the data set with Leishmania donovani [18]; with Leishmania donovani [19]; in data set [20]; in the data set with Leishmania donovani [22]; in the data set with Leishmania donovani [23]) was Active. Besides, the outcome with Leishmania donovani [24] was Active. For the same compound, the IC50 turned out to be 3.75 µM on DNA topoisomerase I [3] and 8.75 µM on DNA topoisomerase I [6]. Further, the inhibition result in data set [5] and in data set [8] was “Dose-Dependent Effect” each time. The “fold change (FC)” value in the data set with Leishmania donovani [10] turned out to be 4. The concentration for a half-maximal effect (EC50) with Leishmania donovani [11] is 4.8 µM; in the data set with Leishmania donovani [16], 2.5 µM.
